According to article PMC3425516 (PLoS ONE, 2012):
“And” between values parts separate entries of the source, which are not always exact repeats. Equal values may be shown once.

Legend:
[1] = tested on: total HDAC activity in HCT116 cells; test: Total HDACs enzymatic activity assay in treated cells; type: cell-based, human; settings: HCT116 cells treated 24 h
Protocol: Total HDACs enzyme activity was determined using the Boc-Lys(Ac)-AMC fluorometric HDAC activity assay kit (BioVision, Mountain View, CA, USA).

[2] = Body weight and adverse effects in xenograft study; type: in vivo, nude mice; settings: HCT116 xenograft mice, oral daily treatment
Protocol: (A) Tumors were measured regularly and growth delay was calculated for treatment groups relative to control tumors (TGD). (B) Kaplan-Meier survival analysis was based on the tumor growth endpoint. (C) Inhibition of tumor growth curves represented a mean±SEM and percentage change in mean tumor volume (percent TGI). (D) Body weights were measured daily during the first week and then 2 times per week. The body weight ratio was calculated relative to the baseline measurement.
(§1) Once a tumor was palpable with the size of approximately 55 mm^3, mice were randomized into vehicle control and treatment groups (8 mice per group). Control mice received the vehicle (0.5% carboxymethyl cellulose +0.1% Tween 80). Tumors in all 3 groups were allowed to reach an endpoint volume of 1,200 mm^3.

HUVEC = test: Crystal violet cell growth assay; type: cell-based, human
Protocol: The HUVECs were seeded into 96-well culture plates (5000 cells/well) in quadruplicate. After 24 h incubation, cells were fixed with 0.1% crystal violet/20% methanol, representing cell population at the time of drug treatment (T 0). […] After 48 h incubation at 37°C, cells were stained with 0.1% crystal violet/20% methanol for 10 minutes and washed for 3 times.

recombinant human HDAC2 = recombinant human HDAC2 (Homo sapiens, UniProt Q92769); test: HDAC biochemical assay (fluorogenic); settings: Class I, mean±SE
Description: (§4) The HDACs in vitro activities of recombinant human HDAC 1, 2, 4, 6 and 8 (BPS Biosciences) were detected by fluorigenic release of 7-amino-4-methylcoumarin from substrate upon deacetylase enzymatic activity.

HCT116 cells [3] = test: Flow cytometry cell cycle / sub-G1 analysis; type: cell-based, human
Protocol: After centrifugation, cells were incubated in 0.1 mol/L phosphate-citric acid buffer [0.2 mol/L NaHPO4, 0.1 mol/L citric acid (pH 7.8)] for 20 min at room temperature. Then, the cells were centrifuged and resuspended with 0.5 mL PI solution containing Triton X-100 (0.1%, v/v), RNase (100 µg/mL), and PI (80 µg/mL). DNA content was analyzed with the FACScan and CellQuest software (Becton Dickinson).

SK-OV-3 = test: NCI-60 cell lines screening; type: cell-based, human; settings: SK-OV-3, Ovarian Cancer panel
Protocol: (§2) The NCI-60 cancer cell lines screening was conducted by the NCI’s Developmental Therapeutics Program (DTP; http://www.dtp.nci.nih.gov/branches/btb/ivclsp.html).

MALME-3M = test: NCI-60 cell lines screening; type: cell-based, human; settings: Melanoma panel
Protocol: as §2

MAD-MB-231/ATCC = test: NCI-60 cell lines screening; type: cell-based, human; settings: Breast Cancer panel
Protocol: as §2

SF-539 = test: NCI-60 cell lines screening; type: cell-based, human; settings: SF-539, CNS Cancer panel
Protocol: as §2

LOX IMVE = test: NCI-60 cell lines screening; type: cell-based, human; settings: Melanoma panel
Protocol: as §2

HCT116 xenograft tumors = test: Western blot of HCT116 xenograft tumor tissues; type: in vivo, nude mice; settings: 200 mg/kg oral daily for 7 days
Protocol: (§3) For total lysate, cells were lysed with the 120 µL ice-cold lysis buffer [10 mmol/L Tris-HCl (pH 7.4), 150 mmol/L NaCl, 1 mmol/L EGTA, 1 mmol/L phenylmethylsulfonyl fluoride, 10 µg/mL aprotinin, 10 µg/mL leupeptin, 1 mM sodium orthovandate, 1 mM NaF, and 1% Triton X-100]. Cell lysates were centrifuged at 13,000 rpm for 30 min. […] After 1 h incubation at room temperature in PBS/5% nonfat milk, the membrane was washed with PBS/0.1% and incubated with the indicated antibodies at 4°C overnight. After washings with PBS/0.1% Tween 20, the corresponding secondary antibodies were applied to the membranes for 1 h at room temperature. The membranes were then washed with PBS/0.1% Tween 20 and the detection of signal was done with an enhanced chemiluminescence detection kit (Amersham, Buckinghamshire, UK).
as §1

recombinant human HDAC1 = recombinant human HDAC1 (Homo sapiens, UniProt Q13547); test: biochemical
Description: as §4

HCT116 cells [4] = test: Western blot caspase 3 and PARP; type: cell-based, human; settings: 24 h
Protocol: as §3

[5] = tested on: HDACs in HeLa nuclear extracts; test: HeLa nuclear extract HDAC activity assay; type: biochemical
Protocol: The HeLa nuclear extract HDAC activity was measured by using the HDAC Fluorescent Activity Assay Kit (BioVision, CA, USA) according to manufacturer’s instructions. Briefly, the HDAC fluorometric substrate and assay buffer were added to HeLa nuclear extracts in a 96-well format and incubated at 37°C for 30 min. The reaction was stopped by adding lysine developer, and the mixture was incubated for another 30 min at 37°C. Additional negative controls included incubation without the nuclear extract, without the substrate, or without both. TSA at 1 µM served as the positive control.

[6] = tested on: human HCT116 colorectal cancer xenograft; test: HCT116 xenograft, tumor growth inhibition after 15 days dosing; type: in vivo, nude mice
Protocol: The human HCT116 colorectal adenocarcinoma cells used for implantation were harvested during log phase growth and resuspended in phosphate-buffered saline at 5×10^7 cells/mL. Each mouse was injected s.c. in the right flank with 1.0×10^7 cells (0.2 mL cell suspension). Tumors were monitored twice weekly and then daily as their volumes approached 1,200 mm^3. Tumor size, in mm^3, was calculated from: where w = width and l = length in mm of the tumor. Tumor volume = (w^2×l)/2.
The tumor growth curves show the group median tumor volume, on a log scale as a function of time.
as §1

[7] = Homo sapiens, read-out: LC50 (the source's name)

Chain of recombinant human HDAC1 (Q13547 whole entry): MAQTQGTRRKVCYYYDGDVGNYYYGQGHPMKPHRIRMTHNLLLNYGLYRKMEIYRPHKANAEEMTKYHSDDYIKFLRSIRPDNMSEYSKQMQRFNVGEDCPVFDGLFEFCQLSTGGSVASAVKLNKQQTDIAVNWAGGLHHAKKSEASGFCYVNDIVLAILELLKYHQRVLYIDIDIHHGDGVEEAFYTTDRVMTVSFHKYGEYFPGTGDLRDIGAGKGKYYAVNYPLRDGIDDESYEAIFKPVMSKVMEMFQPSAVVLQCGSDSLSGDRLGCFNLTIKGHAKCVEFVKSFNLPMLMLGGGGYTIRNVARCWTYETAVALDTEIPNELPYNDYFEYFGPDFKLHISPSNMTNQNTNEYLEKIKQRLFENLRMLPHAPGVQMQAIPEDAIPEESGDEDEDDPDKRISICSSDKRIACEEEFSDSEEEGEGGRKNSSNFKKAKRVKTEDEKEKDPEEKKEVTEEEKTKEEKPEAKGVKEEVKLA
Chain of recombinant human HDAC2 (Q92769 whole entry): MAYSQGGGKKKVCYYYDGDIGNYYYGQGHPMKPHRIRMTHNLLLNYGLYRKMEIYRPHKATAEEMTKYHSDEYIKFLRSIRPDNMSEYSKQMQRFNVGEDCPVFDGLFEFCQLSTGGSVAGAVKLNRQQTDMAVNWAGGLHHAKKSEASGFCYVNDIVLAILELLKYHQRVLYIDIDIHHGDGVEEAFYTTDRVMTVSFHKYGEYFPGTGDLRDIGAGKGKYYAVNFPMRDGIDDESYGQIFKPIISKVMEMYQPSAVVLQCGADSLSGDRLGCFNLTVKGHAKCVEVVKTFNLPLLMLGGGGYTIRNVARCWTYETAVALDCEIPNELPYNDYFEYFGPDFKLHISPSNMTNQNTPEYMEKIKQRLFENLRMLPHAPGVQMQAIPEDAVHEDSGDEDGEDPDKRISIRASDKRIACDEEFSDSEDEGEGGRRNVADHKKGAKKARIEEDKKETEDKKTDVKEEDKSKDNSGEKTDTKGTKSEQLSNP

Question: With `O=C(C=Cc1ccc2c(c1)CCN2S(=O)(=O)c1ccccc1)NO` [MPT0E028, 3-(1-benzenesulfonyl-2,3-dihydro-1H-indol-5-yl)-N-hydroxy-acrylamide] as the molecule, how does the IC50 [1] read?
Answer: The IC50 was 4430 ± 500 nM.

Question: And the “body weight and other adverse effects” value [2]?
Answer: The value was “No significant difference in body weight or other adverse effects”.

Question: And the GI50 (HUVEC; HUVEC (human normal cells), crystal violet assay, 48 h)?
Answer: Its GI50 is 3570 ± 450 nM.

Question: And the “folds less sensitive against normal cells (safety margin)” value (HUVEC; HUVEC versus cancer cells)?
Answer: The value was 20–40 folds.

Question: And the IC50 (recombinant human HDAC2)?
Answer: The IC50 was 106 ± 23 nM.

Question: And the “sub-G1 population (flow cytometry)” value (HCT116 cells [3])?
Answer: The value was “increased the number of cells in the sub-G1 phase of the cell cycle”.

Question: And the GI50 (SK-OV-3; Homo sapiens)?
Answer: Its GI50 is 190 nM.

Question: And the CC50 (SK-OV-3; [7])?
Answer: Its CC50 is 4260 nM.

Question: And the TGI (SK-OV-3)?
Answer: Its TGI is 601 nM.

Question: What about the GI50 (MALME-3M; Homo sapiens) of the same molecule?
Answer: The GI50 was 37.5 nM.

Question: What about the CC50 (MALME-3M; [7]) of the same molecule?
Answer: The CC50 was greater than 100000 nM.

Question: And the TGI (MALME-3M)?
Answer: The TGI was 907 nM.

Question: And the TGI (MAD-MB-231/ATCC)?
Answer: Its TGI is 822 nM.

Question: What about the GI50 (MAD-MB-231/ATCC; Homo sapiens) of the same molecule?
Answer: Its GI50 is 241 nM.

Question: What about the CC50 (MAD-MB-231/ATCC; [7]) of the same molecule?
Answer: Its CC50 is 20400 nM.

Question: What about the GI50 (SF-539; Homo sapiens) of the same molecule?
Answer: Its GI50 is 241 nM.

Question: What about the CC50 (SF-539; [7]) of the same molecule?
Answer: The CC50 was 3390 nM.

Question: And the TGI (SF-539)?
Answer: The TGI was 1150 nM.

Question: And the GI50 (LOX IMVE; Homo sapiens)?
Answer: Its GI50 is 222 nM.

Question: And the CC50 (LOX IMVE; [7])?
Answer: Its CC50 is 2880 nM.

Question: And the TGI (LOX IMVE)?
Answer: Its TGI is 718 nM.

Question: And the “expression of caspase 3, PARP, acetyl-histone H3 and acetyl-tubulin in xenograft tumors” value (HCT116 xenograft tumors)?
Answer: The value was “caspase 3, PARP and acetyl-histone H3 were substantially induced”.

Question: What about the IC50 (recombinant human HDAC1) of the same molecule?
Answer: The IC50 was 53 ± 12 nM.

Question: What about the “caspase 3 and PARP activation (western blot)” value (HCT116 cells [4]) of the same molecule?
Answer: Its value is “induced caspase 3 and PARP activation in a concentration-dependent manner”.

Question: What about the “times more potent than SAHA in HDAC activity inhibition” value ([5]; HeLa and HCT116 cells, relative to SAHA) of the same molecule?
Answer: The value was 9–30 times and 10–30 times.

Question: What about the IC50 ([5]; HeLa nuclear extract) of the same molecule?
Answer: The IC50 was 11.1 nM.

Question: And the “percent tumor growth inhibition (%TGI)” value ([6]; 100 mg/kg oral once a day for 15 days)?
Answer: The value was 32.0%.

Question: What about the “percent tumor growth inhibition (%TGI)” value ([6]; 200 mg/kg oral once a day for 15 days) of the same molecule?
Answer: Its value is 73.5%.
